In US8853406B2, “Substituted phenylenediamines as inhibitors of the interaction between MDM2 and P53” (Janssen Pharmaceutica NV, priority 2007, dated 2014):

Experiments:
Male NMRI mice = test: Ro-4-1284 antagonism in mice (drug induced neurological effects); type: in vivo; conditions: Ro-4-1284 antagonism in mice
Experimental: The test is a modification of a procedure described by Colpaert et al. (1975).^3 Male NMRI mice (22±3 g) were housed in macrolon observation cages (L×W×H: 11×12×17 cm; n=3 per cage). At the start of the experiments immediately before test compound administration, the initial body temperature of the mice was measured with a precision of 0.1° C. by inserting the thermo-sensitive probe (1.0 mm diameter) of an electric thermometer (Comark) to a constant depth of 3 cm into the esophagus until a stable reading was obtained. The right eye pupil diameter was measured with a graduated microscope and expressed in 1/24 mm units. Fifteen min after test compound administration, the mice were challenged with Ro-4-1284 (10 mg/kg, s.c.). Ro-4-1284 is a reserpine-like vesicular monoamine transport (VMAT-2) inhibitor, which rapidly depletes secretory vesicles.^3,4 Fifteen, 30 and 60 min after challenge, the mice were scored for palpebral opening (0, 1, 2, 3, 4, 5) and locomotor activity (−1, 0, 1, 2, 3). At the 60-min interval, immediately after the scoring of overt behavior, the right eye pupil diameter and the esophageal temperature were measured again. Abnormal phenomena such as intensive sniffing, chewing, rearing, hyperemia, piloerection, salivation, tremors, convulsions and death were noted (the latter phenomena were also noted when occurring before Ro-4-1284 administration). Criteria for drug-induced effects: reversal of ptosis: palpebral opening score >1 at 15, 30 or 60 min (2.7, 0.5 and 0% false positive controls, respectively; n>350); induction of prostration: score −1 for locomotion at 15, 30 or 60 min (never observed in controls); reversal of hypomotility: score >0 for locomotion at 15, 30 and 60 min (2.2, 0.8 and 0% false positive controls, respectively); reversal of miosis: pupil diameter >5 units at 60 min (0.8% false positives); potentiation of hypothermia: temperature decrease (over the 1-h time interval)>9.0° C. (1.4% false positives); reversal of hypothermia: temperature decrease <3.0° C. (1.8% false positives).
According to the standard procedure, R0-4-1284 is injected 15 min following subcutaneous or oral administration and observations start 15 min later. Doses are initially given to 3 animals. When at least 2 out of the 3 animals show activity for at least one of the observations, the compound is considered active.

p53 in U87MG cells = test: U87MG p53-elisa as described in EP1809622; type: cell-based; conditions: lowest dose giving at least 140% of the p53 value of the control
p53 in A2780 cells = test: p53 ELISA in A2780 cells (capacity to preserve p53); type: cell-based; conditions: lowest dose giving at least 140% of the p53 value of the control, 16 hours
Experimental: The capacity of the compounds to preserve p53 in A2780 cells was measured with the p53 enzyme linked immunosorbent assay. The p53 assay is a “sandwich” enzyme immunoassay employing two polyclonal antibodies. A polyclonal antibody, specific for the p53 protein, has been immobilized onto the surface of the plastic wells. Any p53 present in the sample to be assayed will bind to the capture antibody. The biotinylated detector polyclonal antibody also recognizes p53 protein, and will bind to any p53, which has been retained by the capture antibody. The detector antibody, in turn, is bond by horseradish peroxidase-conjugated streptavidin. The horseradish peroxidase catalyses the conversion of the chromogenic substrate o-phenylene diamine, the intensity of which is proportional to the amount of p53 protein bond to the plate. The colored reaction product is quantified using a spectrophotometer. Quantitation is achieved by the construction of a standard curve using known concentrations of purified recombinant HIS tagged p53 protein (see example C.1.).
A2780 cells (ATCC) were cultivated in RPMI 1640 supplemented with 10% fetal calf serum (FCS), 2 mM L-glutamine and gentamycin at 37° C. in a humidified incubator with 5% CO2.
A2780 cells were seeded at 20.000 cells per well in a 96 well plate, cultured for 24 hours and treated with compound for 16 hours at 37° C. in a humidified incubator. After incubation, the cells were washed once with phosphate-buffered saline and 30 μl, per well, low salt RIPA buffer (20 mM tris, pH7.0, 0.5 mM EDTA, 1% Nonidet P40, 0.5% DOC, 0.05% SDS, 1 mM PMSF, 1 μg/ml aprotinin and 0.5 μ/ml leupeptin) was added. Plates were placed on ice for 30 minutes to complete the lysis. p53 protein was detected in de lysates by using the sandwich ELISA, described below.
High binding polystyrene EIA/RIA 96 well plates (Costar 9018) were coated with the capture antibody pAb1801 (Abcam ab28-100) at a concentration of 1 μg/ml in coating buffer (0.1 M NaHCO3 pH8.2), 50 μl per well. The antibody was allowed to adhere overnight at 4° C. Coated plates were washed once with phosphate-buffered saline (PBS)/0.05% Tween 20 and 300 μl of blocking buffer (PBS, 1% bovine serum albumins (BSA)) was added, for an incubation period of 2 hours at room temperature. Dilutions of purified recombinant HIS tagged p53 protein, ranging from 3-200 ng/ml, were made in blocking buffer and used as standards.
Plates were washed twice with PBS/0.05% Tween 20 and blocking buffer or standards were added at 80 μl/well. To the standards, 20 μl of lysis buffer was added. The samples were added to the other wells at 20 μl lysate/well. After an overnight incubation at 4° C., plates were washed twice with PBS/0.05% Tween 20. Aliquots of 100 μl secondary polyclonal antibody p53(FL-393) (Tebubio, sc-6243) at a concentration of 1 μg/ml in blocking buffer were added to each well and allowed to adhere for 2 hours at room temperature. Plates were washed three times with PBS/0.05% Tween 20. Detection antibody anti-rabbit HRP (sc-2004, Tebubio) at 0.04 μg/ml in PBS/1% BSA was added and incubated for 1 hour at room temperature. Plates were washed three times with PBS/0.05% Tween 20 and 100 μl of substrate buffer was added (substrate buffer was prepared shortly before use by adding 1 tablet of 10 mg o-phenylene diamine (OPD) from Sigma and 125 μl 3% H2O2 to 25 ml OPD buffer: 35 mM citric acid, 66 mM Na2HPO4, pH5.6). After 5 to 10 minutes, colour reaction was stopped by adding 50 μl stop buffer (1 M H2SO4) per well. The absorbance at dual wavelengths of 490/655 nm was measured using a Biorad micro plate reader and the results were then analyzed.
For each experiment, controls (containing no drug) and a blank incubation (containing no cells or drugs) were run in parallel. The blank value was subtracted from all control and sample values. For each sample, the value of p53 (in absorbance units) was expressed as the percentage of the value for p53 present in the control. […]

c1ccc2c(CCNc3ccc(Nc4ccncc4)cc3)c[nH]c2c1
drug induced neurological side effects (Male NMRI mice): yes | U87MG p53-elisa LAD (p53 in U87MG cells): 3.00E-06 | A2780 p53-elisa LAD (p53 in A2780 cells): 1.00E-06

OC1CCc2c(Nc3ccc(NCCc4c[nH]c5ccccc45)cc3)ccnc21 (stereo not shown) [drawing 33]
drug induced neurological side effects (Male NMRI mice): yes | U87MG p53-elisa LAD (p53 in U87MG cells): 1.00E-06 | A2780 p53-elisa LAD (p53 in A2780 cells): 1.00E-07

Cc1cc(Nc2ccnc3c2CCC3O)ccc1NCCc1c[nH]c2c(C)cccc12 (stereo not shown) [compound 3]
A2780 p53-elisa LAD (p53 in A2780 cells): 1.00E-07

OC1CCc2c(Nc3ccc(NCCc4c[nH]c5ccccc45)cc3)ccnc21 (stereo not shown) [drawing 34]
drug induced neurological side effects (Male NMRI mice): yes | U87MG p53-elisa LAD (p53 in U87MG cells): 1.00E-07 | A2780 p53-elisa LAD (p53 in A2780 cells): 3.00E-07

Cc1cc(Nc2ccncc2)ccc1NCCc1c[nH]c2ccccc12
drug induced neurological side effects (Male NMRI mice): yes | U87MG p53-elisa LAD (p53 in U87MG cells): 1.00E-05 | A2780 p53-elisa LAD (p53 in A2780 cells): 3.00E-06

Cc1cccc2c(CCNc3ccc(Nc4ccncc4)cc3)c[nH]c12
drug induced neurological side effects (Male NMRI mice): yes | U87MG p53-elisa LAD (p53 in U87MG cells): 1.00E-06 | A2780 p53-elisa LAD (p53 in A2780 cells): 3.00E-07
